Measurements taken from ChEMBL document CHEMBL3774317, “Design and synthesis of novel tamoxifen analogues that avoid CYP2D6 metabolism” (Eur J Med Chem, 2016).

What was measured:
M14 = experiment: Cytotoxicity against human M14 cells assessed as growth inhibition after 48 hrs by SRB assay; type: functional; settings: M14, 48 h; for CC50: read-out: LC50 (the source's name)
[1] = Cytotoxicity against human BT549 cells assessed as growth inhibition after 48 hrs by SRB assay; type: functional; settings: BT-549, 48 h; for CC50: read-out: LC50 (the source's name)
NCI-H322M = experiment: Cytotoxicity against human NCI-H322M cells assessed as growth inhibition after 48 hrs by SRB assay; type: functional; settings: for CC50: read-out: LC50 (the source's name)
[2] = Cytotoxicity against human HCC2998 cells assessed as growth inhibition after 48 hrs by SRB assay; type: functional; settings: HCC 2998, 48 h; for CC50: read-out: LC50 (the source's name)
[3] = Cytotoxicity against human Caki1 cells assessed as growth inhibition after 48 hrs by SRB assay; type: functional; settings: CAKI-1, 48 h
[4] = Cytotoxicity against human HOP62 cells assessed as growth inhibition after 48 hrs by SRB assay; type: functional; settings: HOP-62, 48 h
[5] = Cytotoxicity against human OVCAR5 cells assessed as growth inhibition after 48 hrs by SRB assay; type: functional; settings: OVCAR-5, 48 h
[6] = Cytotoxicity against human HCT116 cells assessed as growth inhibition after 48 hrs by SRB assay; type: functional; settings: HCT-116, 48 h
[7] = Cytotoxicity against human HL-60(TB) cells assessed as growth inhibition after 48 hrs by SRB assay; type: functional; settings: HL-60, 48 h; for CC50: read-out: LC50 (the source's name)
A549 = experiment: Cytotoxicity against human A549 cells assessed as growth inhibition after 48 hrs by SRB assay; type: functional; settings: A549, 48 h
[8] = Cytotoxicity against human RPMI8226 cells assessed as growth inhibition after 48 hrs by SRB assay; type: functional; settings: RPMI-8226, 48 h
786-0 = experiment: Cytotoxicity against human 786-0 cells assessed as growth inhibition after 48 hrs by SRB assay; type: functional; settings: 786-0, 48 h; for CC50: read-out: LC50 (the source's name)
SK-MEL-2 = experiment: Cytotoxicity against human SK-MEL-2 cells assessed as growth inhibition after 48 hrs by SRB assay; type: functional; settings: SK-MEL-2, 48 h; for CC50: read-out: LC50 (the source's name)
ACHN = experiment: Cytotoxicity against human ACHN cells assessed as growth inhibition after 48 hrs by SRB assay; type: functional
[9] = Cytotoxicity against human UO31 cells assessed as growth inhibition after 48 hrs by SRB assay; type: functional; settings: UO-31, 48 h; for CC50: read-out: LC50 (the source's name)
Estrogen receptor = biological target: T1, Estrogen receptor (Homo sapiens, UniProt P03372)
T1 sequence (P03372 whole entry): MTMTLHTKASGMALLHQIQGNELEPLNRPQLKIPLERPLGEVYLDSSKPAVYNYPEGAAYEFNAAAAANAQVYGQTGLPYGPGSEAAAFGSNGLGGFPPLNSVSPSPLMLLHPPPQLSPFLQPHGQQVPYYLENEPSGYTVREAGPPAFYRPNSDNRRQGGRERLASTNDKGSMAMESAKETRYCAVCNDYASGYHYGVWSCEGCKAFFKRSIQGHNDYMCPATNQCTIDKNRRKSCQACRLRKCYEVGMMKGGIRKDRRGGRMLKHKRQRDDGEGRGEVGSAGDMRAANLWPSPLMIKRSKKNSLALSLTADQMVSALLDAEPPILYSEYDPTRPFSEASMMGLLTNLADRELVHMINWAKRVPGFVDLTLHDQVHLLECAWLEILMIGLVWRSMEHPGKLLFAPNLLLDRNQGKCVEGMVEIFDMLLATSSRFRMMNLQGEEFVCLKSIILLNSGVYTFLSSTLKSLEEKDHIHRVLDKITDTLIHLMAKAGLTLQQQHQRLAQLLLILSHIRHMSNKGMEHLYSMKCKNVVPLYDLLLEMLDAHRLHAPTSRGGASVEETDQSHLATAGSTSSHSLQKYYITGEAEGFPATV
Description: Displacement of [3H]-E2 from human ER-alpha incubated for 16 to 20 hrs by liquid scintillation counting analysis

Malme-3M = experiment: Cytotoxicity against human MALME-3M cells assessed as growth inhibition after 48 hrs by SRB assay; type: functional; settings: for CC50: read-out: LC50 (the source's name)
[10] = Cytotoxicity against human SKOV3 cells assessed as growth inhibition after 48 hrs by SRB assay; type: functional; settings: SK-OV-3, 48 h; for CC50: read-out: LC50 (the source's name)
T47D = experiment: Cytotoxicity against human T47D cells assessed as growth inhibition after 48 hrs by SRB assay; type: functional
SK-MEL-5 = experiment: Cytotoxicity against human SK-MEL-5 cells assessed as growth inhibition after 48 hrs by SRB assay; type: functional; settings: SK-MEL-5, 48 h; for CC50: read-out: LC50 (the source's name)
[11] = Cytotoxicity against human MOLT4 cells assessed as growth inhibition after 48 hrs by SRB assay; type: functional; settings: MOLT-4, 48 h
[12] = Cytotoxicity against human HCT15 cells assessed as growth inhibition after 48 hrs by SRB assay; type: functional; settings: HCT-15, 48 h
[13] = Cytotoxicity against human PC3 cells assessed as growth inhibition after 48 hrs by SRB assay; type: functional; settings: PC-3, 48 h
SN12C = experiment: Cytotoxicity against human SN12C cells assessed as growth inhibition after 48 hrs by SRB assay; type: functional
EKVX = experiment: Cytotoxicity against human EKVX cells assessed as growth inhibition after 48 hrs by SRB assay; type: functional
NCI-H460 = experiment: Cytotoxicity against human NCI-H460 cells assessed as growth inhibition after 48 hrs by SRB assay; type: functional; settings: NCI-H460, 48 h; for CC50: read-out: LC50 (the source's name)
KM12 = experiment: Cytotoxicity against human KM12 cells assessed as growth inhibition after 48 hrs by SRB assay; type: functional; settings: KM12, 48 h

`CCCCCCCCCC(=O)Oc1ccc(/C(=C(/C)c2ccccc2)c2ccc(OCCN3CCCC3)cc2)cc1` gave a TGI (M14) of 16.5 µM, a CC50 (M14) of 32.8 µM and a GI50 [1] of 8.22 µM. For the same compound, the TGI [1] was 16.8 µM, the CC50 [1] was 34.5 µM and the GI50 (NCI-H322M) was 8.04 µM. It also gave a TGI (NCI-H322M) of 15.7 µM, a CC50 (NCI-H322M) of 30.7 µM and a GI50 [2] of 8.66 µM. The TGI [2] was 17.2 µM, the CC50 [2] was 34.3 µM and the GI50 [3] was 6.77 µM. It also gave an LC50 [3] of 28.7 µM, a TGI [3] of 13.9 µM and a GI50 [4] of 8.75 µM. For the same compound, the LC50 (concentration giving 50% net cell kill) [4] was 34.1 µM, the TGI [4] was 17.3 µM and the GI50 [5] was 8.56 µM. It also gave an LC50 (concentration killing 50% of cells) [5] of 31.8 µM, a TGI [5] of 16.5 µM and a GI50 [6] of 8.01 µM. It also gave an LC50 [6] of 30.6 µM, a TGI [6] of 15.7 µM and a GI50 [7] of 9.24 µM. The TGI [7] was 18.7 µM, the CC50 [7] was 37.8 µM and the GI50 (A549) was 9.35 µM. For the same compound, the LC50 (A549) was 33.4 µM, the TGI (A549) was 17.7 µM and the GI50 [8] was 9.13 µM. For the same compound, the LC50 [8] was 48.5 µM, the TGI [8] was 21 µM and the GI50 (786-0) was 8.77 µM. It also gave a TGI (786-0) of 16.8 µM, a CC50 (786-0) of 32.2 µM and a GI50 (SK-MEL-2) of 9.49 µM. It also gave a TGI (SK-MEL-2) of 18.1 µM, a CC50 (SK-MEL-2) of 34.4 µM and a GI50 (ACHN) of 8.16 µM. The LC50 (concentration causing 50% net cell kill) (ACHN) was 29.3 µM, the TGI (ACHN) was 15.5 µM and the GI50 [9] was 6.72 µM. The TGI [9] was 14.2 µM, the CC50 [9] was 29.8 µM and the IC50 (Estrogen receptor) was 0.0484 µM. It also gave a GI50 (Malme-3M) of 7.76 µM, a TGI (Malme-3M) of 15.7 µM and a CC50 (Malme-3M) of 31.9 µM. For the same compound, the GI50 [10] was 7.36 µM, the TGI [10] was 14.8 µM and the CC50 [10] was 29.6 µM. It also gave an LC50 (T47D) of 39.9 µM, a TGI (T47D) of 14.4 µM and a GI50 (SK-MEL-5) of 8.13 µM. For the same compound, the TGI (SK-MEL-5) was 14.9 µM, the CC50 (SK-MEL-5) was 27.3 µM and the GI50 [11] was 8.61 µM. The LC50 [11] was 47.7 µM, the TGI [11] was 20.3 µM and the GI50 [12] was 6.69 µM. It also gave an LC50 (concentration killing 50% of cells) [12] of 25.6 µM, a TGI [12] of 13.1 µM and a GI50 [13] of 8.28 µM. It also gave an LC50 [13] of 30 µM, a TGI [13] of 15.7 µM and a GI50 (SN12C) of 9.15 µM. It also gave an LC50 (concentration killing 50% of cells) (SN12C) of 35.1 µM, a TGI (SN12C) of 17.9 µM and a GI50 (EKVX) of 6.92 µM. It also gave an LC50 (EKVX) of 26.6 µM, a TGI (EKVX) of 13.6 µM and a GI50 (NCI-H460) of 8.46 µM. For the same compound, the TGI (NCI-H460) was 15.9 µM, the CC50 (NCI-H460) was 29.9 µM and the GI50 (KM12) was 8.79 µM. It also gave an LC50 (concentration giving 50% net cell kill) (KM12) of 31.7 µM and a TGI (KM12) of 16.7 µM.
Work on `C/C(=C(/c1ccc(O)cc1)c1ccc(OCCN2CCCC2)cc1)c1ccccc1` yielded a GI50 (M14) of 1.88 µM, a TGI (M14) of 4.08 µM and a CC50 (M14) of 8.86 µM. It also gave a GI50 [1] of 4.2 µM, a TGI [1] of 15.7 µM and a CC50 [1] of 39.6 µM. For the same compound, the GI50 (NCI-H322M) was 5.12 µM, the TGI (NCI-H322M) was 18.6 µM and the CC50 (NCI-H322M) was 47 µM. It also gave a GI50 [2] of 2.34 µM, a TGI [2] of 6.18 µM and a CC50 [2] of 28.5 µM. The GI50 [3] was 3.02 µM, the LC50 [3] was 37.3 µM and the TGI [3] was 13.9 µM. For the same compound, the GI50 [4] was 2.1 µM, the LC50 (concentration giving 50% net cell kill) [4] was 9.84 µM and the TGI [4] was 4.54 µM. For the same compound, the GI50 [5] was 7.99 µM, the LC50 (concentration killing 50% of cells) [5] was 54.2 µM and the TGI [5] was 22.5 µM. It also gave a GI50 [6] of 2.92 µM, an LC50 [6] of 32.6 µM and a TGI [6] of 10.1 µM. For the same compound, the GI50 [7] was 2.04 µM, the TGI [7] was 4.97 µM and the CC50 [7] was 23.4 µM. For the same compound, the GI50 (A549) was 3.53 µM, the LC50 (A549) was 35 µM and the TGI (A549) was 11 µM. It also gave a GI50 [8] of 2.4 µM, an LC50 [8] of 65 µM and a TGI [8] of 6.72 µM. For the same compound, the GI50 (786-0) was 1.86 µM, the TGI (786-0) was 4.09 µM and the CC50 (786-0) was 9 µM. For the same compound, the GI50 (SK-MEL-2) was 1.97 µM, the TGI (SK-MEL-2) was 3.95 µM and the CC50 (SK-MEL-2) was 7.94 µM. The GI50 (ACHN) was 4.28 µM, the LC50 (concentration causing 50% net cell kill) (ACHN) was 44.1 µM and the TGI (ACHN) was 16.3 µM. For the same compound, the GI50 [9] was 1.87 µM, the TGI [9] was 5.72 µM and the CC50 [9] was 23.7 µM. For the same compound, the IC50 (Estrogen receptor) was 0.0008 µM, the GI50 (Malme-3M) was 1.7 µM and the TGI (Malme-3M) was 3.41 µM. The CC50 (Malme-3M) was 6.84 µM, the GI50 [10] was 3.25 µM and the TGI [10] was 13 µM. The CC50 [10] was 36.9 µM, the GI50 (T47D) was 0.716 µM and the LC50 (T47D) was 53.7 µM. The TGI (T47D) was 7.93 µM, the GI50 (SK-MEL-5) was 1.72 µM and the TGI (SK-MEL-5) was 3.1 µM. It also gave a CC50 (SK-MEL-5) of 5.59 µM, a GI50 [11] of 2.94 µM and an LC50 [11] of 67.2 µM. The TGI [11] was 11 µM, the GI50 [12] was 1.81 µM and the LC50 (concentration killing 50% of cells) [12] was 14.4 µM. It also gave a TGI [12] of 4.64 µM, a GI50 [13] of 4.28 µM and an LC50 [13] of 40.1 µM. It also gave a TGI [13] of 14.7 µM, a GI50 (SN12C) of 9.17 µM and an LC50 (concentration killing 50% of cells) (SN12C) of 68.7 µM. It also gave a TGI (SN12C) of 25.7 µM, a GI50 (EKVX) of 2.46 µM and an LC50 (EKVX) of 33.9 µM. The TGI (EKVX) was 11.5 µM, the GI50 (NCI-H460) was 2.36 µM and the TGI (NCI-H460) was 5.38 µM. The CC50 (NCI-H460) was 16.9 µM, the GI50 (KM12) was 3.51 µM and the LC50 (concentration giving 50% net cell kill) (KM12) was 41.5 µM. The TGI (KM12) was 13.2 µM.
